Reference: PMC9000575, “Solution Equilibrium Studies on Salicylidene Aminoguanidine Schiff Base Metal Complexes: Impact of the Hybridization with L-Proline on Stability, Redox Activity and Cytotoxicity” (Molecules, 2022)
Read-outs that look alike come from different tables or passages of the source.

Experiments:
[1] = test system: MRC-5 human embryonal lung fibroblast cells; assay: MTT cytotoxicity test; assay type: cell-based; conditions: MRC-5, 72 h
Procedure: (§1) All cell culture reagents were obtained from Sigma-Aldrich and plastic ware from Sarstedt (Nümbrecht, Germany). Human colon Colo-205 (chemo-sensitive) and Colo-320 (doxorubicin-resistant) adenocarcinoma and MRC-5 human embryonal lung fibroblast cell lines were purchased from LGC Promochem, Teddington, UK. The colon adenocarcinoma cells were cultured in Roswell Park Memorial Institute (RPMI) 1640 medium supplemented with 10% heat-inactivated fetal bovine serum, 2 mM L-glutamine, 1 mM sodium pyruvate and 100 mM HEPES. The MRC-5 cell line was cultured in Eagle’s Minimal Essential Medium (EMEM, Sigma-Aldrich, St. Louis, MO, USA) supplemented with a non-essential amino acid (NEAA) mixture (Sigma-Aldrich, St. Louis, MO, USA) a selection of vitamins, 10% heat-inactivated foetal bovine serum (FBS), 2 mM L-glutamine (Sigma-Aldrich, St. Louis, MO, USA), 1 mM Na-pyruvate (Sigma-Aldrich, St. Louis, MO, USA), nystatin (Sigma-Aldrich, St. Louis, MO, USA) and a penicillin-streptomycin mixture (Sigma-Aldrich, St. Louis, MO, USA) in concentrations of 100 U/L and 10 mg/L, respectively. The cells were incubated at 37 °C, in a 5% CO2, 95% air atmosphere. All cell lines were detached with Trypsin-Versene® (EDTA) solution for 5 min at 37 °C.
(§2) The tested compounds were dissolved in 90% (v/v) DMSO/H2O using 8 mM concentration, […] in the final samples the DMSO content was always lower than 1%. Then stock solutions were diluted in complete culture medium, and two-fold serial dilutions of compounds were prepared in 100 μL of the medium, horizontally. The semi-adherent colon adenocarcinoma cells were treated with Trypsin-Versene (EDTA) solution. They were adjusted to a density of 1 × 10^4 cells in 100 μL of RPMI 1640 or EMEM medium and were added to each well, with the exception of the medium control wells. The final volume of the wells containing compounds and cells was 200 μL. The plates containing Colo-205, Colo-320 or MRC-5 cells were incubated at 37 °C for 72 h; at the end of the incubation period, 20 μL of MTT solution (from a stock solution of 5 mg/mL) were added to each well. After incubation at 37 °C for 4 h, 100 μL of SDS solution (10% in 0.01 M HCI) were added to each well, and the plates were further incubated at 37 °C overnight. Cell growth was determined by measuring the optical density (OD) at 540/630 nm with a Multiskan EX plate reader (Thermo Labsystems, Cheshire, WA, USA). Inhibition of the cell growth (expressed as IC50: inhibitory concentration that reduces by 50% the growth of the cells exposed to the tested compounds) was determined from the sigmoid curve where 100 − ((ODsample − ODmedium control)/(ODcell control − ODmedium control)) × 100 values were plotted against the logarithm of compound concentrations. Curves were fitted by GraphPad Prism software (2021, Graphpad Software, San Diego, CA, USA) using the sigmoidal dose–response model (comparing variable and fixed slopes). The IC50 values were obtained from at least three independent experiments.

[2] = test system: Colo-205 human colon adenocarcinoma cells; assay: MTT cytotoxicity test; assay type: cell-based; conditions: Colo-205, 72 h
Procedure: as §1, §2

[3] = test system: Colo-320 (doxorubicin-resistant) human colon adenocarcinoma cells; assay: MTT cytotoxicity test; assay type: cell-based; conditions: Colo-320, 72 h
Procedure: as §1, §2

[4] = literature pKa values of analogous (thio)semicarbazones; assay type: physicochemical; conditions: from literature pKa values (refs 22, 23)
[5] = 30% (v/v) DMSO/H2O; cited from earlier work
[6] = pH 7.4; cited from earlier work
[7] = test system: MRC-5 human embryonal lung fibroblast cells; design: method as in PMID 35287037; conditions: MRC-5, 72 h; cited from earlier work
[8] = stability constants of Fe(III) complexes by pH-potentiometry; assay type: physicochemical; conditions: calculated at pH 7.4, cFe = 1 μM, cligand = 10 μM, from overall stability constants reported in Refs. 22, 27, 34
[9] = stability constants of Fe(II) complexes by pH-potentiometry; assay type: physicochemical; conditions: calculated at pH 7.4, cFe = 1 μM, cligand = 10 μM, from overall stability constants reported in Refs. 22, 27, 34
[10] = cited from earlier work
[11] = test system: Colo-205 human colon adenocarcinoma cells; design: method as in PMID 35287037; conditions: Colo-205, 72 h; cited from earlier work
[12] = test system: Colo-320 (doxorubicin-resistant) human colon adenocarcinoma cells; design: method as in PMID 35287037; conditions: Colo-320, 72 h; cited from earlier work

Structure (SMILES) | IC50 [1] [µM] | IC50 [2] [µM] | IC50 [3] [µM] | fraction present in neutral form at pH 7.4 [4] [%] | pK1 [5] | pK2 [5] | logD7.4 [6] | IC50 [7] [µM] | pFe(III)* (−logΣ[Fe(III)i(OH)j]) [8] | pFe(II) (−log[Fe(II)]) [9] | E1/2 of the Fe(III)/Fe(II) redox couple of the iron complexes ([10]; STSC complexes, 'as it was found', no reference given) [V vs. NHE] | IC50 [11] [µM] | IC50 [12] [µM] | E1/2 of the Fe(III)/Fe(II) redox couple of the iron complexes [10]
[Cl][Cu][Cl] [CuCl2, reference compound] | 43.9 ± 0.3 | 44.1 ± 0.4 | 48.7 ± 0.4 |  |  |  |  |  |  |  |  |  |  | 
NC(=O)N/N=C/c1ccccc1O [SSC, salicylaldehyde semicarbazone] |  |  |  | 100 | 9.32 | > 12.8 | +0.94 |  |  |  |  |  |  | 
NC(=S)N/N=C/c1ccccc1O [STSC, salicylaldehyde TSC] |  |  |  | 97 | 8.89 | 12.59 | +1.59 | 88 ± 19 | 8.4 | 8.3 | −0.14 | 69.7 ± 1.9 | 52.2 ± 6.8 | 
NC(=S)NN=Cc1ncccc1N [Triapine, 3-aminopyridine-2-carbaldehyde thiosemicarbazone] |  |  |  |  |  |  |  | 31.4 ± 9.2 | 7.3 | 11.6 |  | 3.28 ± 0.63 | 2.17 ± 0.15 | +0.08 V vs. NHE
